Reference: patent US10730880B2, “4,6-substituted-pyrazolo[1,5-a]pyrazines as Janus kinase inhibitors” (Array BioPharma Inc., priority 2014, dated 2020)
Read-outs that look alike come from different tables or passages of the source.

Legend:
Format in all cases: biochemical
JAK2 = JAK2 (Homo sapiens (Human), UniProt O60674); experiment: JAK2 Inhibition Assay (Omnia kinase fluorescence peptide substrate assay)
Text: (§1) The assays described in Examples A, B, C and D for the determination of Tyk2, JAK1, JAK2 and JAK3 kinase activity, respectively, utilized the Omnia® Kinase fluorescence peptide substrate-based technology (Invitrogen). The specific components of the assay mixture are described in Examples A, B, C and D. In these assays, Mg^2+ is chelated upon phosphorylation of the Omnia peptide by the kinase to form a bridge between the chelation-enhanced fluorophore Sox and the phosphate, resulting in an increase in fluorescence emission at 485 nm when excited at […]. The reactions were therefore read at excitation 360 nm and emission was measured at 485 nm every 50 seconds for 45 minutes using a PerkinElmer EnVision Multilabel Plate Reader.
(§2) The final buffer conditions for Tyk2, JAK1, JAK2, and JAK3 assays were as follows: 25 mM HEPES, pH 7.4, 10 mM MgCl2, 0.01% Triton X-100 and 1 mM DTT.
(§3) Two-μL aliquots of these were transferred to a fresh plate for a ten-fold intermediate dilution with assay buffer. Five-μL aliquots of the diluted compounds were then transferred to 20-μL of assay mixtures described in Examples A, B, C and D for a final concentration of DMSO of 2%. […] For each plate, percent of control (POC) values were calculated for each well according to the following equation:
(§4) where Xmax=Average Uninhibited Controls • Xmin=Average Background IC50's were estimated from the POC's using a standard 4-parameter logistic model:
(§5) where A=Minimum Y (Bottom Asymptote) • B=Maximum Y (Top Asymptote) • C=EC50 • D=Slope Factor • X=Compound Concentration (nM) • Y=POC
(§6) The IC50 is defined as the concentration of inhibitor at which the POC equals 50 for the fitted curve.
(§7) Compounds of Formula I were screened for their ability to inhibit JAK2 using the general enzyme inhibition assay method, in which the assay mixture contained 1 mM ATP, 10 μM Omnia® Y7 peptide (Catalog # IVGN KNZ3071C, Invitrogen Corporation, Carlsbad, Calif.) and 4 nM JAK2 in a total volume of 25 μL. JAK2 was purchased from Invitrogen Corporation, Carlsbad, Calif. (catalog # IVGN PV4288).

Human Tyk2 kinase domain = Human Tyk2 kinase domain (Homo sapiens (Human), UniProt P29597); experiment: Tyk2 Inhibition Assay (Omnia kinase fluorescence peptide substrate assay)
Text: as §1, §2, §3, §4, §5, §6
Compounds of Formula I were screened for their ability to inhibit Tyk2 using the general enzyme inhibition assay method, in which the assay mixture contained 1 mM ATP, 8 μM Omnia® Y12 peptide (Catalog # IVGN KPZ3121C; Invitrogen Corporation, Carlsbad, Calif.) and 1 nM Tyk2 in a total volume of 25 μL. Human Tyk2 kinase domain, comprising amino acids 886 to 1187 with 10 additional histidine residues (histidine tag) on the carboxy terminus, was expressed and purified from bacculovirus in-house at Array BioPharma Inc. (Boulder, Colo.). The histidine tag was cleaved after purification using standard conditions.

JAK3 = JAK3 (Homo sapiens (Human), UniProt P52333); experiment: JAK3 Inhibition Assay (Omnia kinase fluorescence peptide substrate assay); settings: read-out: JAK3 Enzyme IC50 1 mM ATP, averaged IC50 ranges
Text: as §1, §2
as §3, with “equation: […]” for “equation:”

JAK1 = JAK1 (Homo sapiens (Human), UniProt P23458); experiment: JAK1 Inhibition Assay (Omnia kinase fluorescence peptide substrate assay)
Text: as §1, §2, §3, §4, §5, §6
as §7, with “JAK1” for “JAK2”, “8” for “10”, “Y12” for “Y7”, “KPZ3121C;” for “KNZ3071C,”, “12.5” for “4”, “PV4775).” for “PV4288).”

[1] = read-out: JAK2 Enzyme IC50 1 mM ATP, 1 mM ATP, averaged IC50 ranges
[2] = read-out: TYK2 Enzyme IC50 1 mM ATP, 1 mM ATP, averaged IC50 ranges
[3] = JAK1 Enzyme IC50 1 mM ATP, averaged IC50 ranges

Sequence of Human Tyk2 kinase domain (P29597 886-1187): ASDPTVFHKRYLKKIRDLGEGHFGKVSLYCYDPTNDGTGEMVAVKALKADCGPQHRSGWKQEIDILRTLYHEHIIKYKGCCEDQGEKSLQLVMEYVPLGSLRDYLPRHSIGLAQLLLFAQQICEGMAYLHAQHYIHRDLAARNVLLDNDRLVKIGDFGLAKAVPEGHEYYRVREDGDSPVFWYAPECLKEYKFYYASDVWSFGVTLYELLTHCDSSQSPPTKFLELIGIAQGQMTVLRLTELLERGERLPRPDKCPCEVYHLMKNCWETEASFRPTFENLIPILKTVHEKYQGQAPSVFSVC
Sequence of JAK2 (O60674 whole entry): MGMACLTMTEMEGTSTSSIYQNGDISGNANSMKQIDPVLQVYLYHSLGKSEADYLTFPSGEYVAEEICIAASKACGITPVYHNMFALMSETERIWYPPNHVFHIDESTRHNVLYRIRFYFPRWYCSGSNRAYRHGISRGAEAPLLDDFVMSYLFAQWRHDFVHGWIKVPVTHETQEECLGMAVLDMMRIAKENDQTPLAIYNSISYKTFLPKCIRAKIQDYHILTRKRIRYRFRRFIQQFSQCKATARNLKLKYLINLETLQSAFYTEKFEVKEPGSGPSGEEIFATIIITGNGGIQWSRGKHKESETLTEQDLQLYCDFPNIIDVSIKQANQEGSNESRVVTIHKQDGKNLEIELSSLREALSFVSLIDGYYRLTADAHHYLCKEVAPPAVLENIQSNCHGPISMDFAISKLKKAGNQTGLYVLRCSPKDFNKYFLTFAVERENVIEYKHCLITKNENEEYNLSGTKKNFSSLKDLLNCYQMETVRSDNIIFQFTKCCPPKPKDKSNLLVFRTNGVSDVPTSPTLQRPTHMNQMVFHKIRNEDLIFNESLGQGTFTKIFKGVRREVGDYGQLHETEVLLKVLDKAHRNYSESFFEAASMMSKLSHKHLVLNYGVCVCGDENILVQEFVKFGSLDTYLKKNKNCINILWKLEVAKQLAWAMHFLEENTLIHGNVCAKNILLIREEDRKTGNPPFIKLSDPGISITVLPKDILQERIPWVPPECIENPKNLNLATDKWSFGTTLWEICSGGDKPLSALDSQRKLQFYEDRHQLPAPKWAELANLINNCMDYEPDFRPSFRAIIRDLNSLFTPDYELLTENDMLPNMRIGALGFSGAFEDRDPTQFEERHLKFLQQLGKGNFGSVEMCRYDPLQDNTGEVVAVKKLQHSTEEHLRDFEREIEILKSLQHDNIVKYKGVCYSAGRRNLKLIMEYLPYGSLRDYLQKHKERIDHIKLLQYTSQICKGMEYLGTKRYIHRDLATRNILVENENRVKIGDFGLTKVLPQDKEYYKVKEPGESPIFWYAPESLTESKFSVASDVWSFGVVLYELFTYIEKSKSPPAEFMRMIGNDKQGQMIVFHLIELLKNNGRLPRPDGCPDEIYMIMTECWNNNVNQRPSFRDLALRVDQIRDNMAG
Sequence of JAK1 (P23458 whole entry): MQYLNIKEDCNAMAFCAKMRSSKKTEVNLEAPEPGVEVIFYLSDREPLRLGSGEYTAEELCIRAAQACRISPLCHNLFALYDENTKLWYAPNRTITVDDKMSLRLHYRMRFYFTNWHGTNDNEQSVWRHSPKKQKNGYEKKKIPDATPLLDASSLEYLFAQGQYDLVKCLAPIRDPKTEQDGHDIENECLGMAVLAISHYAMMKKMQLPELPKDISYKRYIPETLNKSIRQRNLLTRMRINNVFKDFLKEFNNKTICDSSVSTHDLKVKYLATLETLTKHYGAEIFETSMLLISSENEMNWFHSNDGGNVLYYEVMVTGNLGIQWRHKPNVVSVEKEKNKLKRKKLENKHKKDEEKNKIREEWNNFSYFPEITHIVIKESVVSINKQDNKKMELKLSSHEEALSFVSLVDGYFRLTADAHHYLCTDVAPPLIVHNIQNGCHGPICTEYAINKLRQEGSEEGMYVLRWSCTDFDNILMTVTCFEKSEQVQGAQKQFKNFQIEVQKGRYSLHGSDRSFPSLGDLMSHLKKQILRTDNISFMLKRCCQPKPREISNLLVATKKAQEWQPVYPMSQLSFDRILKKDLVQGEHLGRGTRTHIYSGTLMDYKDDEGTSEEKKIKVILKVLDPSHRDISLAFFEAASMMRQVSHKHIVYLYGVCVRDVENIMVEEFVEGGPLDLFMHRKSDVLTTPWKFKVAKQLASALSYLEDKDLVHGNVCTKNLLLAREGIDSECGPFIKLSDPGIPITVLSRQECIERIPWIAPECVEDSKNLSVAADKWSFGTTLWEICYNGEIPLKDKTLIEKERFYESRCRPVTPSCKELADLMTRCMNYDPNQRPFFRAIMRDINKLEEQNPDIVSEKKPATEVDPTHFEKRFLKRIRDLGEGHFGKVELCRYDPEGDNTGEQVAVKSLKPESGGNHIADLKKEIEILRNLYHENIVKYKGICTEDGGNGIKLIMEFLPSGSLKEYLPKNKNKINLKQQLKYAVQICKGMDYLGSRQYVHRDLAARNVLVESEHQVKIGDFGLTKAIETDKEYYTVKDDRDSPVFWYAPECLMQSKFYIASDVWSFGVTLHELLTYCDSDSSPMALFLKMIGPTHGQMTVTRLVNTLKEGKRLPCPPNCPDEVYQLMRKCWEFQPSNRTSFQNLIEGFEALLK
Sequence of JAK3 (P52333 whole entry): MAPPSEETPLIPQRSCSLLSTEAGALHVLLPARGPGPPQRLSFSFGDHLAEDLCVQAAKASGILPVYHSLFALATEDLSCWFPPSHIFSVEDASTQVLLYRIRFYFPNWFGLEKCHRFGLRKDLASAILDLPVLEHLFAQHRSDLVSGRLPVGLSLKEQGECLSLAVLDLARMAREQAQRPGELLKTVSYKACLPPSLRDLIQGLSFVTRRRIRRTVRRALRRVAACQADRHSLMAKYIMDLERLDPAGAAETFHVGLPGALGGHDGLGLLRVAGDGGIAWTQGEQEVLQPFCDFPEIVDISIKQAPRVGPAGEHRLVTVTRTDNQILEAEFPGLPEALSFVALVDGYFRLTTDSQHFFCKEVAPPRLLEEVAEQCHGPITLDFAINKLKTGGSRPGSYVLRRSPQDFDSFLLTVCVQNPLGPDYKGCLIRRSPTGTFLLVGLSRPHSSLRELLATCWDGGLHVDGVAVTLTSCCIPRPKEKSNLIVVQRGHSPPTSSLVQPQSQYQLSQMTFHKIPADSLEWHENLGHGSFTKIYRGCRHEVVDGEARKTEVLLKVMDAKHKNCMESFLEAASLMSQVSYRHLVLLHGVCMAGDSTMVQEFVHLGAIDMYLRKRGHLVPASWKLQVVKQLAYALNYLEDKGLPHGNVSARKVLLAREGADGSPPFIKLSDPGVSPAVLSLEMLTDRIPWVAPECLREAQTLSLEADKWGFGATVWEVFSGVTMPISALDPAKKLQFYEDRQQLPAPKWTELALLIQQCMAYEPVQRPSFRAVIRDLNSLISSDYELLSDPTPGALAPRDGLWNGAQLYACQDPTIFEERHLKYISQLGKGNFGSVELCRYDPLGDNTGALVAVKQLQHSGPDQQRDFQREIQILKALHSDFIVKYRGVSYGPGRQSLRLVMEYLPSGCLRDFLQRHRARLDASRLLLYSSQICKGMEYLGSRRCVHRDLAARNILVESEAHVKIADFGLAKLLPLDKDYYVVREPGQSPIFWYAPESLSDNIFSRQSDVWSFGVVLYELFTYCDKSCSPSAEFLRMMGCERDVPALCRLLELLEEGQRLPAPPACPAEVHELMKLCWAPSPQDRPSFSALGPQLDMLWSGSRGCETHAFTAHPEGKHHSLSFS

| IC50 (JAK2; [1]) | IC50 (Human Tyk2 kinase domain; [2]) | further results | Compound |
| --- | --- | --- | --- |
| 10 to 100 nM | – | – | CC[C@H](C1CC1)n1cc(-c2nc(-c3cnn(C[C@@H](O)CO)c3)cn3nccc23)cn1 (single isomer, unassigned) [Example 213] |
| < 10 nM | – | – | CCC(CC)n1cc(-c2nc(-c3cnn(C4CS(=O)(=O)C4)c3)cn3nccc23)cn1 [Example 13, 3-(4-(4-(1-(pentan-3-yl)-1H-pyrazol-4-yl)pyrazolo[1,5-a]pyrazin-6-yl)-1H-pyrazol-1-yl)thietane 1,1-dioxide] |
| < 10 nM | – | – | CCC(CC)n1cc(-c2nc(-c3cnn(C4CCN(C(C)=O)CC4)c3)cn3nccc23)cn1 [Example 31, 1-(4-(4-(4-(1-(pentan-3-yl)-1H-pyrazol-4-yl)pyrazolo[1,5-a]pyrazin-6-yl)-1H-pyrazol-1-yl)piperidin-1-yl)ethanone] |
| < 10 nM | < 10 nM | – | CCC(CC)n1cc(-c2nc(-c3cnn(C4CCN(S(C)(=O)=O)CC4)c3)cn3nccc23)cn1 [Example 32, 6-(1-(1-(methylsulfonyl)piperidin-4-yl)-1H-pyrazol-4-yl)-4-(1-(pentan-3-yL)-1H-pyrazol-4-yl)pyrazolo[1,5-a]pyrazine] |
| < 10 nM | < 10 nM | – | CCC(CC)n1cc(-c2nc(-c3cnn(C4CCN(C(=O)COC)CC4)c3)cn3nccc23)cn1 [Example 33, 2-methoxy-1-(4-(4-(4-(1-(pentan-3-yl)-1H-pyrazol-4-yl)pyrazolo[1,5-a]pyrazin-6-yl)-1H-pyrazol-1-yl)piperidin-1-yl)ethanone] |
| < 10 nM | – | – | CCC(CC)n1cc(-c2nc(-c3cnn(C4CCN(C(=O)NC)CC4)c3)cn3nccc23)cn1 [Example 34, N-methyl-4-(4-(4-(1-(pentan-3-yl)-1H-pyrazol-4-yl)pyrazolo[1,5-a]pyrazin-6-yl)-1H-pyrazol-1-yl)piperidine-1-carboxamide] |
| < 10 nM | < 10 nM | – | CCC(CC)n1cc(-c2nc(-c3cnn(C4CCN(C(=O)CN)CC4)c3)cn3nccc23)cn1 [Example 36, 2-amino-1-(4-(4-(4-(1-(pentan-3-yl)-1H-pyrazol-4-yl)pyrazolo[1,5-a]pyrazin-6-yl)-1H-pyrazol-1-yl)piperidin-1-yl)ethanone] |
| < 10 nM | – | – | CC[C@@H](C)n1cc(-c2nc(-c3cnn(C(CO)CO)c3)cn3nccc23)cn1 [Example 85, (R)-2-(4-(4-(1-(sec-butyl)-1H-pyrazol-4-yl)pyrazolo[1,5-a]pyrazin-6-yl)-1H-pyrazol-1-yl)propane-1,3-diol] |
| – | < 10 nM | – | CCC[C@H](C)n1cc(-c2nc(-c3cnn(C[C@H](O)CO)c3)cn3nccc23)cn1 [Example 86, (S)-3-(4-(4-(1-((S)-pentan-2-yl)-1H-pyrazol-4-yl)pyrazolo[1,5-a]pyrazin-6-yl)-1H-pyrazol-1-yl)propane-1,2-diol] |
| 1000 to 10000 nM | – | – | CC1(C)CCC[C@@H]1n1cc(-c2nc(-c3cnn(C[C@@H](O)CO)c3)cn3nccc23)cn1 [Example 95, (R)-3-(4-(4-(1-((S)-2,2-dimethylcyclopentyl)-1H-pyrazol-4-yl)pyrazolo[1,5-a]pyrazin-6-yl)-1H-pyrazol-1-yl)propane-1,2-diol] |
| – | – | IC50 (JAK3): 1000 to 10000 nM | CCC(CC)n1cc(-c2nc(-c3cnn([C@H]4CC[C@H](O)CC4)c3)cn3nccc23)cn1 [Example 118, trans-4-(4-(4-(1-(pentan-3-yl)-1H-pyrazol-4-yl)pyrazolo[1,5-a]pyrazin-6-yl)-1H-pyrazol-1-yl)cyclohexanol] |
| – | – | IC50 (JAK3): 1000 to 10000 nM | CCC(CC)n1cc(-c2nc(-c3cnn([C@H]4CC[C@@H](O)CC4)c3)cn3nccc23)cn1 [Example 121, cis-4-(4-(4-(1-(pentan-3-yl)-1H-pyrazol-4-yl)pyrazolo[1,5-a]pyrazin-6-yl)-1H-pyrazol-1-yl)cyclohexanol] |
| 10 to 100 nM | – | IC50 (JAK1; read-out: JAK1 Enzyme IC50 1 mM ATP, averaged IC50 ranges): 100 to 1000 nM | CCC(CC)n1cc(-c2nc(-c3cnn([C@@H]4C[C@@H](O)[C@@H](O)C4)c3)cn3nccc23)cn1 [Example 132, (1R,2S,4s)-4-(4-(4-(1-(pentan-3-yl)-1H-pyrazol-4-yl)pyrazolo[1,5-a]pyrazin-6-yl)-1H-pyrazol-1-yl)cyclopentane-1,2-diol] |
| – | – | IC50 (JAK1; [3]): 1000 to 10000 nM | CCC(CC)n1cc(-c2nc(-c3cnn(C4CC(C(N)=O)C4)c3)cn3nccc23)cn1 (centres unmarked) [Example 168, (1s,3s)-3-(4-(4-(1-(pentan-3-yl)-1H-pyrazol-4-yl)pyrazolo[1,5-a]pyrazin-6-yl)-1H-pyrazol-1-yl)cyclobutanecarboxamide] |
| – | < 10 nM | – | CCC(CC)n1cc(-c2nc(-c3cnn(C4CN(C(=O)C(C)(C)O)C4)c3)cn3nccc23)cn1 [Example 176, 2-hydroxy-2-methyl-1-(3-(4-(4-(1-(pentan-3-yl)-1H-pyrazol-4-yl)pyrazolo[1,5-a]pyrazin-6-yl)-1H-pyrazol-1-yl)azetidin-1-yl)propan-1-one] |
| – | < 10 nM | – | CCC(CC)n1cc(-c2nc(-c3cnn(C4CN(C(=O)C5(O)CC5)C4)c3)cn3nccc23)cn1 [Example 177, (1-hydroxycyclopropyl)(3-(4-(4-(1-(pentan-3-yl)-1H-pyrazol-4-yl)pyrazolo[1,5-a]pyrazin-6-yl)-1H-pyrazol-1-yl)azetidin-1-yl)methanone] |
| – | – | IC50 (Human Tyk2 kinase domain): 10 to 100 nM; IC50 (JAK1; [3]): 1000 to 10000 nM; IC50 (JAK2): 10 to 100 nM | CCC(CC)n1cc(-c2nc(-c3cnn([C@@H]4CCC[C@@H]4O)c3)cn3nccc23)cn1 [Example 189, (1S,2R)-2-(4-(4-(1-(pentan-3-yl)-1H-pyrazol-4-yl)pyrazolo[1,5-a]pyrazin-6-yl)-1H-pyrazol-1-yl)cyclopentanol] |
